From US20220015402A1, “Mint Flavor Compositions” (The Procter & Gamble Company, priority 2020, published 2022)

Assays:
[1] = Comparison of cooling attributes of (−)-menthol and racemic menthol in a toothpaste (CREST Cavity formulation); type: in vivo
From the text: The following data helps support the use of racemic menthol to reduce costs of mint flavor compositions herein described. From internal unpublished research, Table B compares replacing (−)-menthol with a racemic menthol in a 1:1 in a toothpaste formulation. Such a direct replacement is not preferred given the reduced cooling profile and olfactory differences; however, a portion of L-menthol is preferably replaced by racemic-menthol to gain cost efficiency while minimizing impact to the overall mint flavor profiles.
Table B is a comparison of attributes between (—)-menthol and racemic menthol in a toothpaste context (using CREST Cavity formulation).

[2] = Expert sensory testing of racemic menthol vs (−)-menthol in toothpaste (CREST Cavity) with standard spearmint flavor; type: in vivo
Description: In separate, unpublished internal experiments, perceptual experiences of racemic menthol are quantified via expert sensory testing. The use of a standard spearmint flavor (minimizing extra menthol contribution) compared racemic menthol to (−)-menthol in a toothpaste formulation (CREST Cavity). There are several sensory observations taken from these experiments. […] These aromatic notes appear during brushing and disappear after 5-10 minutes post expectoration and are more pronounced as concentrations increase.

SMILES: CC1CCC(C(C)C)C(O)C1 (racemic) [Racemic Menthol, racemic menthol]
- Potency compared to L-Menthol [1]: ~0.65-0.7x
- Time Point at Maximum Cooling [1]: ~1 min
- Maximum Cooling (0-60 scale) ([1]; 60 = greatest amount of cooling, 0 = least): 35
- Maximum Longevity ([1]; cooling): Up to 20 minutes
- less potent than (−)-menthol for cooling [2]: 25-30%
